Experimental data as given in patent publication US20250129097.
Read-outs that look alike come from different tables or passages of the source.

Assays:
[1] = ester bond, 18-membered ring, EDCI/HOBt/DIEA, DCM
[2] = from CCn1c(-c2cc(N3CCN(c4cccc(COC=O)c4)CC3)cnc2[C@H](C)OC)c(CC(C)(C)CO)c2cc([C@@H]3C[C@H]3CC[C@H](NC(=O)OC(C)(C)C)C(=O)N3CCC[C@@H](C(=O)O)N3)ccc21; ester bond; 18-membered ring; EDCI/HOBt/DIEA; DCM; 10.8 mM; 45.0 °C; 16.0 h

Which ring closure, isolated yield ([1]; from CCn1c(-c2cccnc2[C@H](C)OC)c(CC(C)(C)CO)c2cc([C@@H]3C[C@H]3OC[C@H](NC(=O)OC(C)(C)C)C(=O)N3CCC[C@@H](C(=O)O)N3)ccc21, 13.8 mM, 20.0 °C, 12.0 h) does the source give for CCn1c(-c2cccnc2[C@H](C)OC)c2c3cc(ccc31)[C@@H]1C[C@H]1OC[C@H](NC(=O)OC(C)(C)C)C(=O)N1CCC[C@H](N1)C(=O)OCC(C)(C)C2 here?
The ring closure, isolated yield was 37%.

Which ring closure, isolated yield ([1]; the molecule shown is the open-chain precursor, 10.3 mM, 35.0 °C) does the source give for CCn1c(-c2cc(N3CCN(C(=O)OCc4ccccc4)CC3)cnc2[C@@H](C)OC)c(CC(C)(C)CO)c2cc([C@H]3C[C@@H]3N(C)C[C@@H](NC(=O)OC(C)(C)C)C(=O)N3CCC[C@@H](C(=O)OC)N3)ccc21 here?
The ring closure, isolated yield was 16%.

Which ring closure, yield after HPLC [2] does the source give for CCn1c(-c2cc(N3CCN(c4cccc(COC=O)c4)CC3)cnc2[C@H](C)OC)c2c3cc(ccc31)[C@@H]1C[C@H]1CC[C@H](NC(=O)OC(C)(C)C)C(=O)N1CCC[C@H](N1)C(=O)OCC(C)(C)C2 here?
The ring closure, yield after HPLC was 4.8%.
